In patent publication US7829542B2, “Prophylactic and therapeutic treatment of infectious and other diseases with immunoeffector compounds” (Corixa Corporation, priority 2002, dated 2010):

How the values were obtained:
[1] = tested on: Influenza A/HK/68; experiment: Protection against lethal influenza challenge by prophylactic administration; type: in vivo, BALB/c mice; conditions: 20 μg intranasally 48 hours prior to lethal intranasal challenge (5 LD50)
Method: This example provides experiments evaluating protection against a lethal challenge with influenza in cyclic AGP-treated mice. BALB/c mice (10 mice per group) were treated intranasally with 20 μg of the compounds of examples 1, 2 and 3, or with MPL, 48 hours prior to an lethal intranasal challenge of Influenza A/HK/68 (5 LD50). Protection was judged by survival, observations of clinical symptoms (ruffled fur, hunched posture and labored breathing), and prevention of weight loss for 21 days following the challenge.

[2] = tested on: L. monocytogenes 10403 serotype; experiment: Murine Listeria monocytogenes challenge model (induction of non-specific resistance); type: in vivo, mice; conditions: 1 μg intravenously in 0.2% TEOA, i.v. challenge with ~10^5 L. monocytogenes two days later, spleen CFUs two days after challenge
Method: This example provides experiments evaluating the induction of non-specific resistance in the murine Listeria monocytogenes challenge model performed using the compounds prepared in examples 1, 2 and 3. Mice (5 per group) were treated intravenously with the 1 μg of a cyclic AGP or MPL solublized in 0.2% triethanolamine (TEOA). Two days later the mice were challenged intravenously with a ˜10^5 L. monocytogenes 10403 serotype (stock culture provided by Jory Baldridge, Washington State University, Pullman, Wash.). Two days after the challenge the mice were sacrificed and the number of colony forming units (CFUs) in the spleens of individual mice were determined by plating 10-fold serial dilutions of splenic homogenates on tryptic soy agar plates. The degree of protection afforded by a given AGP or MPL was calculated by subtracting the average number of bacteria per spleen (log 10 value) in the group of mice treated with a given compound, from the average number of bacteria per spleen (log 10 value) in a control group that was “sham” treated with vehicle (0.2% TEOA) prior to challenge with L. monocytogenes.

Molecule	protection compared with the vehicle control (in words) [1]	survival rate ([1]; followed for 21 days) [%]	degree of protection: average bacteria per spleen (log 10) in the vehicle control group minus that in the treated group [2] [log 10 units]	survival (in words) ([1]; followed for 21 days)
CCCCCCCCCCCC(=O)O[C@H](CCCCCCCCCCC)CC(=O)N[C@H]1[C@H](OC[C@@H]2CCCN2C(=O)C[C@@H](CCCCCCCCCCC)OC(=O)CCCCCCCCCCC)O[C@H](CO)[C@@H](OP(=O)(O)O)[C@@H]1OC(=O)C[C@@H](CCCCCCCCCCC)OC(=O)CCCCCCCCCCC.CCN(CC)CC [Example 2, N-[(R)-3-Dodecanoyloxytetradecanoyl]-(S)-2-pyrrolidinylmethyl 2-Deoxy-4-O-phosphono-2-[(R)-3-dodecanoyloxy-tetradecanoylamino]-3-O-[(R)-3-dodecanoyloxytetradecanoyl]-β-D-glucopyranoside Triethylammonium Salt]	enhanced protection	40	0.7	
CCCCCCCCCCC[C@H](CC(=O)N[C@H]1[C@H](OC[C@@H]2CCCN2C(=O)C[C@@H](CCCCCCCCCCC)OC(=O)CCCCCCCCC)O[C@H](CO)[C@@H](OP(=O)(O)O)[C@@H]1OC(=O)C[C@@H](CCCCCCCCCCC)OC(=O)CCCCCCCCC)OC(=O)CCCCCCCCC.CCN(CC)CC [Example 3, N-[(R)-3-Decanoyloxytetradecanoyl]-(S)-2-pyrrolidinylmethyl 2-Deoxy-4-O-phosphono-2-[(R)-3-Decanoyloxytetradecanoylamino]-3-O-[(R)-3-Decanoyloxytetradecanoyl]-β-D-glucopyranoside Triethylammonium Salt]	enhanced protection	60	~0.9	
N-[(R)-3-Tetradecanoyloxytetradecanoyl]-(S)-2-pyrrolidinylmethyl 2-Deoxy-4-O-phosphono-2-[(R)-3-tetradecanoyloxytetradecanoylamino]-3-O-[(R)-3-tetradecanoyloxytetradecanoyl]-β-D-glucopyranoside Triethylammonium Salt [Example 1]			0.2	No mice treated with the compound of example 1 survived
